Like-named read-outs stand apart in the source and are kept apart here.
Biological target: FXR (Homo sapiens (Human), UniProt Q96RI1)
Assay: transient human FXR/Gal4-luciferase reporter assay
Type: cell-based
Description: A Gal4-hFXR fusion construct reporter system was used as the primary assay to characterize compound activity. A construct including 5 copies of the Gal4 promoter response element upstream of a firefly luciferase reporter cDNA was stably expressed in HEK293 cells. This reporter cell line was maintained in Dulbecco's Modified Eagle's medium (DMEM; Gibco) supplemented with 1% penicillin-streptomycin (P/S) solution, 500 μg/mL Zeocin and 10% charcoal/dextran-treated fetal bovine serum (cs-FBS) at 37° C. in a humidified 5% CO2 atmosphere. Another plasmid was constructed in which the human cytomegalovirus promoter in the pcDNA3.1 vector directs the expression of the cDNA encoding a fusion protein comprised of the DNA binding domain from the Gal4 transcription factor fused to the ligand binding domain from human FXR.
The day prior to transfection, the reporter cells in culture are detached from the plate with trypsin and plated into a T75 flask at a sufficient density to achieve approximately 90% confluence the next morning. The transfection reagents are prepared by separately diluting 25 μg of the pcDNA3.1-Gal4-FXR plasmid into 1.87 mL of Opti-MEM (Thermo-Fisher), and 40 μL of Lipofectamine 2000 (Thermo-Fisher) into 1.87 mL of Opti-MEM, and then adding the diluted DNA solution into the diluted Lipofectamine 2000 solution and incubating at room temperature for 15-20 minutes. The mixture is further diluted with 10 mL of a solution comprised of DMEM, 10% cs-FBS, and 1% P/S immediately prior to transferring to the cells. The maintenance culture media is aspirated from the cells and the final transfection mixture is added before the cells are incubated overnight at 37° C. in a humidified 5% CO2 atmosphere. This protocol can be scaled up, and the transiently transfected cells can be cryopreserved in an assay-ready format.
For compound testing, 100 nL of the compounds (serial dilutions in DMSO) are dispensed with an Echo acoustic dispenser (Labcyte) into the wells of a Corning/Costar clear bottom 384-well white plate. The transfected cells are harvested, counted, and diluted such that 10-25,000 cells in 25 μL are plated into each well of the 384-well compound assay plate. The compound-treated cells are incubated overnight at 37° C. in a humidified 5% CO2 atmosphere. The next morning 25 μL of Steady-Glo (Promega) are added to each well of the plate, the mixture is incubated for 15 min. with shaking, and luminescence is measured on an Envision (Perkin Elmer) plate reader.

[1] = Gal4-hFXR fusion construct, HEK293 reporter cells, response relative to 8 μM GW-4064

FXR, sequence (Q96RI1 262-486): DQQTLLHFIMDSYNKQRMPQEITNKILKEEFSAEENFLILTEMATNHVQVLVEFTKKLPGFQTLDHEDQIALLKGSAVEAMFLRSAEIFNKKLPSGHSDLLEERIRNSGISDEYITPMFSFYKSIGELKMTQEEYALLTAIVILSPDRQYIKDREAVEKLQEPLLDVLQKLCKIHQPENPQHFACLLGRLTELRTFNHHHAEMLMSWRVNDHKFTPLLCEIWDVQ

Structure (SMILES)	EC50 [1]	EC50
CCOc1ccc(-c2cccc(N(CC34CCC(c5noc(C6(C)CC6)n5)(CC3)CC4)C(=O)C34CC(F)(C3)C4)c2)cn1 [Example 401, N-(3-(6-ethoxypyridin-3-yl)phenyl)-3-fluoro-N-((4-(5-(1-methylcyclopropyl)-1,2,4-oxadiazol-3-yl)bicyclo[2.2.2]octan-1-yl)methyl)bicyclo[1.1.1]pentane-1-carboxamide]	0.042 µM	–
COc1cc(-c2cccc(N(CC34CCC(c5nnc(C6CC6)o5)(CC3)CC4)C(=O)C34CC(F)(C3)C4)c2)ccn1 [Example 342, N-((4-(5-cyclopropyl-1,3,4-oxadiazol-2-yl)bicyclo[2.2.2]octan-1-yl)methyl)-3-fluoro-N-(3-(2-methoxypyridin-4-yl)phenyl)bicyclo[1.1.1]pentane-1-carboxamide]	0.12 µM	–
CC(=O)Nc1cn2nc(-c3cccc(N(CC45CCC(c6nc(C7CC7)no6)(CC4)CC5)C(=O)C45CC(F)(C4)C5)c3)ccc2n1 [Example 336, N-(3-(2-acetamidoimidazo[1,2-b]pyridazin-6-yl)phenyl)-N-((4-(3-cyclopropyl-1,2,4-oxadiazol-5-yl)bicyclo[2.2.2]octan-1-yl)methyl)-3-fluorobicyclo[1.1.1]pentane-1-carboxamide]	1.23 µM	–
CC(C)(O)c1ccc(-c2cc(N(CC34CCC(c5nc(C6CC6)no5)(CC3)CC4)C(=O)OC(C)(C)C(F)(F)F)ncc2F)cc1F [Example 618, 1,1,1-trifluoro-2-methylpropan-2-yl((4-(3-cyclopropyl-1,2,4-oxadiazol-5-yl)bicyclo[2.2.2]octan-1-yl)methyl)(5-fluoro-4-(3-fluoro-4-(2-hydroxypropan-2-yl)phenyl)pyridin-2-yl) carbamate]	0.049 µM	–
COc1ccc(-c2cccc(N(CC34CCC(c5ccc(C6(C#N)CC6)cc5)(CC3)OC4)C(=O)C34CC(F)(C3)C4)c2)cc1 [Example 349, N-((1-(4-(1-cyanocyclopropyl)phenyl)-2-oxabicyclo[2.2.2]octan-4-yl)methyl)-3-fluoro-N-(4′-methoxy-[1,1′-biphenyl]-3-yl)bicyclo[1.1.1]pentane-1-carboxamide]	0.13 µM	–
CCOc1ccc(-c2cncc(N(CC34CCC(c5nc(C(C)(C)C)no5)(CC3)CC4)C(=O)C34CC(F)(C3)C4)c2)cc1 [Example 476, N-((4-(3-(tert-butyl)-1,2,4-oxadiazol-5-yl)bicyclo[2.2.2]octan-1-yl)methyl)-N-(5-(4-ethoxyphenyl)pyridin-3-yl)-3-fluorobicyclo[1.1.1]pentane-1-carboxamide]	–	0.56 µM
CC(F)(F)c1nc(C23CCC(CN(C(=O)C45CC(F)(C4)C5)c4ccc(F)c(C5CC5)c4)(CC2)CC3)no1 [Example 574, N-(3-cyclopropyl-4-fluorophenyl)-N-((4-(5-(1,1-difluoroethyl)-1,2,4-oxadiazol-3-yl)bicyclo[2.2.2]octan-1-yl)methyl)-3-fluorobicyclo[1.1.1]pentane-1-carboxamide]	0.244 µM	–
Cc1nc2ccc(-c3cccc(N(CC45CCC(c6nc(C7CC7)no6)(CC4)CC5)C(=O)C45CC(F)(C4)C5)c3)cc2s1 [Example 555, N-((4-(3-cyclopropyl-1,2,4-oxadiazol-5-yl)bicyclo[2.2.2]octan-1-yl)methyl)-3-fluoro-N-(3-(2-methylbenzo[d]thiazol-6-yl)phenyl)bicyclo[1.1.1]pentane-1-carboxamide]	–	0.055 µM
COc1ncc(-c2cccc(N(CC34CCC(c5ccc(C(F)(F)F)cn5)(CC3)CC4)C(=O)C34CC(F)(C3)C4)c2)cn1 [Example 494, 3-fluoro-N-(3-(2-methoxypyrimidin-5-yl)phenyl)-N-((4-(5-(trifluoromethyl)pyridin-2-yl)bicyclo[2.2.2]octan-1-yl)methyl)bicyclo[1.1.1]pentane-1-carboxamide]	–	0.516 µM
CC(C)(C)c1noc(C23CCC(CN(C(=O)C45CC(F)(C4)C5)c4cccc(-c5ncc(OC(F)F)cn5)c4)(CC2)CC3)n1 [Example 371, N-((4-(3-(tert-butyl)-1,2,4-oxadiazol-5-yl)bicyclo[2.2.2]octan-1-yl)methyl)-N-(3-(5-(difluoromethoxy)pyrimidin-2-yl)phenyl)-3-fluorobicyclo[1.1.1]pentane-1-carboxamide]	0.045 µM	–
CC(C)(C)c1nc(C23CCC(CN(C(=O)C45CC(F)(C4)C5)c4cc(-c5cnc(C6CC6)nc5)ccn4)(CC2)CC3)no1 [Example 539, N-((4-(5-(tert-butyl)-1,2,4-oxadiazol-3-yl)bicyclo[2.2.2]octan-1-yl)methyl)-N-(4-(2-cyclopropylpyrimidin-5-yl)pyridin-2-yl)-3-fluorobicyclo[1.1.1]pentane-1-carboxamide]	–	0.119 µM
COc1cc(-c2cccc(N(CC34CCC(c5nnc(C)s5)(CC3)CC4)C(=O)C3CC(O)(C(F)(F)F)C3)c2)ccn1 [Example 236, (1S,3S)-3-hydroxy-N-(3-(2-methoxypyridin-4-yl)phenyl)-N-((4-(5-methyl-1,3,4-thiadiazol-2-yl)bicyclo[2.2.2]octan-1-yl)methyl)-3-(trifluoromethyl)cyclobutane-1-carboxamide]	1.54 µM	–
O=C(C1CC(O)(C(F)(F)F)C1)N(CC12CCC(c3noc(-c4ccc(F)cc4)n3)(CC1)CC2)c1cccc(-c2ccc(OC(F)F)cc2)c1 (stereo not drawn) [Example 639, (cis)-N-(4′-(difluoromethoxy)-[1,1′-biphenyl]-3-yl)-N-((4-(5-(4-fluorophenyl)-1,2,4-oxadiazol-3-yl)bicyclo[2.2.2]octan-1-yl)methyl)-3-hydroxy-3-(trifluoromethyl)cyclobutane-1-carboxamide]	0.221 µM	–
CC(C)Oc1ccc(-c2cccc(N(CC34CCC(c5cc(C(C)(F)F)nn5C)(CC3)CC4)C(=O)NC(C)(C)C)c2)cc1 [Example 659, 3-(tert-butyl)-1-((4-(3-(1,1-difluoroethyl)-1-methyl-1H-pyrazol-5-yl)bicyclo[2.2.2]octan-1-yl)methyl)-1-(4′-isopropoxy-[1,1′-biphenyl]-3-yl)urea]	0.053 µM	–
Cc1nc2ncc(-c3cccc(N(CC45CCC(c6noc(C(C)(C)C)n6)(CC4)CC5)C(=O)C45CC(F)(C4)C5)c3)cc2s1 [Example 449, N-((4-(5-(tert-butyl)-1,2,4-oxadiazol-3-yl)bicyclo[2.2.2]octan-1-yl)methyl)-3-fluoro-N-(3-(2-methylthiazolo[4,5-b]pyridin-6-yl)phenyl)bicyclo[1.1.1]pentane-1-carboxamide]	0.098 µM	–
CCOc1ncc(-c2cccc(N(CC34CCC(c5noc(C(C)(C)C)n5)(CC3)CC4)C(=O)[C@H]3C[C@@H](OC)C3)c2)cn1 [Example 511, (1S,3S)—N-((4-(5-(tert-butyl)-1,2,4-oxadiazol-3-yl)bicyclo[2.2.2]octan-1-yl)methyl)-N-(3-(2-ethoxypyrimidin-5-yl)phenyl)-3-methoxycyclobutane-1-carboxamide]	–	0.411 µM
CC(C)(C)c1noc(C23CCC(CN(C(=O)C45CC(F)(C4)C5)c4cccc(-c5ccc(NS(C)(=O)=O)nc5)c4)(CC2)CC3)n1 [Example 364, N-((4-(3-(tert-butyl)-1,2,4-oxadiazol-5-yl)bicyclo[2.2.2]octan-1-yl)methyl)-3-fluoro-N-(3-(6-(methylsulfonamido)pyridin-3-yl)phenyl)bicyclo[1.1.1]pentane-1-carboxamide]	0.509 µM	–

Reference: patent publication US11254663B2 (BRISTOL-MYERS SQUIBB COMPANY, priority 2019, dated 2022)
